Laboratory results from PubChem BioAssay (NCI).
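In this assay, cells in 96-well plates receive the compound at five concentrations for 48 hours. Endpoints are linearly interpolated between the surrounding concentrations. GI50 = concentration required for 50% inhibition of growth. TGI marks complete inhibition of growth.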

Key:
Test in all cases: NCI anticancer screen, dose series, 48 h
[1] = test system: SK-OV-3 ovarian
[2] = test system: HL-60(TB) leukemia
[3] = test system: ACHN renal
[4] = test system: K-562 leukemia
[5] = test system: NCI/ADR-RES ovarian
[6] = test system: HOP-92 NSCLC
[7] = test system: SW-620 colon
[8] = test system: OVCAR-3 ovarian
[9] = test system: SN12C renal
[10] = test system: KM12 colon
[11] = test system: CAKI-1 renal
[12] = test system: RPMI-8226 leukemia
[13] = test system: HCT-15 colon
[14] = test system: NCI-H460 lung
[15] = test system: EKVX NSCLC
[16] = test system: RXF 393 renal
[17] = test system: T-47D breast
[18] = test system: OVCAR-5 ovarian
[19] = test system: COLO 205 colon
[20] = test system: LOX IMVI melanoma
[21] = test system: SF-295 CNS
[22] = test system: UACC-257 melanoma
[23] = test system: MCF7 breast
[24] = test system: SF-268 CNS
[25] = test system: SNB-75 CNS
[26] = test system: OVCAR-8 ovarian
[27] = test system: SNB-19 CNS
[28] = test system: CCRF-CEM leukemia
[29] = test system: MDA-MB-435
[30] = test system: MOLT-4 leukemia
[31] = test system: MALME-3M melanoma
[32] = test system: SF-539 CNS
[33] = test system: A549 NSCLC
[34] = test system: NCI-H522 lung
[35] = test system: PC-3 prostate
[36] = test system: SK-MEL-2 melanoma
[37] = test system: HCC-2998 colon
[38] = test system: 786-0 renal
[39] = test system: M14 melanoma
[40] = test system: UACC-62 melanoma
[41] = test system: A498 renal
[42] = test system: HOP-62 NSCLC
[43] = test system: UO-31 renal
[44] = test system: SR leukemia
[45] = test system: OVCAR-4 ovarian
[46] = test system: SK-MEL-5 melanoma
[47] = test system: TK-10 renal
[48] = test system: NCI-H226 lung
[49] = test system: BT-549 breast
[50] = test system: HS 578T breast
[51] = test system: U251 CNS
[52] = test system: SK-MEL-28 melanoma
[53] = test system: HCT-116 colon
[54] = test system: MDA-MB-231 breast
[55] = test system: DU-145 prostate
[56] = test system: HT29 colon
[57] = test system: IGROV1 ovarian

## NC(N)=Nc1ccc(Oc2cccc(Nc3ccc(Br)c(C(F)(F)F)c3)c2)cn1
[1]
  GI50: 2040 nM
  TGI: 3680 nM
[2]
  GI50: 1630 nM
  TGI: 4120 nM
[3]
  GI50: 1750 nM
  TGI: 3200 nM
[4]
  GI50: 2070 nM
  TGI: > 100000 nM
[5]
  GI50: 3930 nM
  TGI: 29500 nM

## Cn1cc(-c2cc(N)n3nc(-c4cn(C)c5ccc(F)cc45)cc3n2)c2cc(F)ccc21
[6]
  GI50: 1900 nM
  TGI: 3500 nM
[7]
  GI50: 1780 nM
  TGI: 3410 nM
[8]
  GI50: 1740 nM
  TGI: 3160 nM
[9]
  GI50: 1900 nM
  TGI: 3660 nM
[10]
  GI50: 1840 nM
  TGI: 3560 nM
[11]
  GI50: 2040 nM
  TGI: 4420 nM
[12]
  GI50: 2640 nM
  TGI: 8010 nM
[13]
  GI50: 1850 nM
  TGI: 3940 nM
[14]
  GI50: 1900 nM
  TGI: 3750 nM
[15]
  GI50: 1730 nM
  TGI: 3500 nM
[16]
  GI50: 1830 nM
  TGI: 3530 nM
[17]
  GI50: 1750 nM
  TGI: 3690 nM
[18]
  GI50: 1930 nM
  TGI: 4100 nM
[19]
  GI50: 1750 nM
  TGI: 3180 nM
[1]
  GI50: 20900 nM
  TGI: 40500 nM
[20]
  GI50: 2570 nM
  TGI: 4220 nM
[21]
  GI50: 1940 nM
  TGI: 3730 nM
[22]
  GI50: 1780 nM
  TGI: 3580 nM
[23]
  GI50: 1670 nM
  TGI: 3190 nM
[24]
  GI50: 1890 nM
  TGI: 3950 nM
[25]
  GI50: 2290 nM
  TGI: 12400 nM
[26]
  GI50: 1820 nM
  TGI: 3530 nM
[27]
  GI50: 2010 nM
  TGI: 4110 nM
[28]
  GI50: 2750 nM
  TGI: 7920 nM
[29]
  GI50: 1730 nM
  TGI: 3380 nM
[30]
  GI50: 2310 nM
  TGI: 7010 nM
[31]
  GI50: 1840 nM
  TGI: 3570 nM
[32]
  GI50: 1900 nM
  TGI: 3450 nM
[33]
  GI50: 1560 nM
  TGI: 3010 nM
[34]
  GI50: 1620 nM
  TGI: 3280 nM
[35]
  GI50: 1890 nM
  TGI: 3840 nM
[2]
  GI50: 1830 nM
  TGI: 5040 nM
[36]
  GI50: 2110 nM
  TGI: 5970 nM
[37]
  GI50: 1740 nM
  TGI: 3240 nM
[3]
  GI50: 1740 nM
  TGI: 3130 nM
[38]
  GI50: 1500 nM
  TGI: 3000 nM
[4]
  GI50: 2790 nM
  TGI: 10000 nM
[39]
  GI50: 1680 nM
  TGI: 3350 nM
[5]
  GI50: 2060 nM
  TGI: 4600 nM
[40]
  GI50: 1710 nM
  TGI: 3280 nM
[41]
  GI50: 1940 nM
  TGI: 6180 nM
[42]
  GI50: 1990 nM
  TGI: 4310 nM
[43]
  GI50: 1520 nM
  TGI: 2950 nM
[44]
  GI50: 1970 nM
  TGI: 8400 nM
[45]
  GI50: 1900 nM
  TGI: 3900 nM
[46]
  GI50: 1710 nM
  TGI: 3170 nM
[47]
  GI50: 1620 nM
  TGI: 5910 nM
[48]
  GI50: 6500 nM
  TGI: 27800 nM
[49]
  GI50: 1760 nM
  TGI: 3510 nM
[50]
  GI50: 2450 nM
  TGI: 5900 nM
[51]
  GI50: 1680 nM
  TGI: 3170 nM
[52]
  GI50: 1790 nM
  TGI: 3230 nM
[53]
  GI50: 1850 nM
  TGI: 3570 nM
[54]
  GI50: 2000 nM
  TGI: 3790 nM
[55]
  GI50: 1800 nM
  TGI: 3380 nM
[56]
  GI50: 1640 nM
  TGI: 3200 nM

## COC1CCN(Cc2ccc3c(NNC(=O)c4cnccn4)nc4cc(F)ccc4n23)C1 (stereo unspecified)
[6]
  GI50: 1770 nM
  TGI: 30000 nM
[7]
  GI50: 821 nM
  TGI: 20300 nM
[8]
  GI50: 2020 nM
  TGI: 49800 nM
[9]
  GI50: 1820 nM
  TGI: 37000 nM
[10]
  GI50: 2140 nM
  TGI: > 100000 nM
[11]
  GI50: 933 nM
  TGI: 19700 nM
[12]
  GI50: 1760 nM
  TGI: 15600 nM
[13]
  GI50: 355 nM
  TGI: 16300 nM
[14]
  GI50: 453 nM
  TGI: 13600 nM
[15]
  GI50: 1080 nM
  TGI: 23000 nM
[16]
  GI50: 1650 nM
  TGI: 5190 nM
[17]
  GI50: 1060 nM
  TGI: 64500 nM
[18]
  GI50: 2710 nM
  TGI: 97700 nM
[57]
  GI50: 1130 nM
  TGI: 39100 nM
[19]
  GI50: 949 nM
  TGI: 13900 nM
[1]
  GI50: 2350 nM
  TGI: 56000 nM
[20]
  GI50: 1130 nM
  TGI: 2870 nM
[21]
  GI50: 744 nM
  TGI: 14600 nM
[22]
  GI50: 2230 nM
  TGI: 6930 nM
[23]
  GI50: 531 nM
  TGI: 12300 nM
[24]
  GI50: 1990 nM
  TGI: > 100000 nM
[25]
  GI50: 538 nM
  TGI: 13000 nM
[26]
  GI50: 846 nM
  TGI: 15100 nM
[27]
  GI50: 2050 nM
  TGI: 28400 nM
[28]
  GI50: 468 nM
  TGI: > 100000 nM
[29]
  GI50: 2090 nM
  TGI: 18700 nM
[30]
  GI50: 699 nM
  TGI: 41500 nM
[31]
  GI50: 3380 nM
  TGI: 18900 nM
[32]
  GI50: 1320 nM
  TGI: 12100 nM
[33]
  GI50: 1240 nM
  TGI: 16000 nM
[34]
  GI50: 1640 nM
  TGI: 5850 nM
[35]
  GI50: 1450 nM
  TGI: 30200 nM
[2]
  GI50: 1030 nM
[36]
  GI50: 3830 nM
  TGI: 59400 nM
[37]
  GI50: 3630 nM
  TGI: 26800 nM
[3]
  GI50: 647 nM
  TGI: 31800 nM
[38]
  GI50: 1930 nM
  TGI: 20300 nM
[4]
  GI50: 530 nM
  TGI: > 100000 nM
[39]
  GI50: 1370 nM
  TGI: 13100 nM
[5]
  GI50: 505 nM
  TGI: 16600 nM
[40]
  GI50: 2300 nM
  TGI: 13100 nM
[41]
  GI50: 89200 nM
  TGI: > 100000 nM
[42]
  GI50: 747 nM
  TGI: 14400 nM
[43]
  GI50: 260 nM
  TGI: 14600 nM
[44]
  GI50: 722 nM
  TGI: 20500 nM
[45]
  GI50: 667 nM
  TGI: 19100 nM
[46]
  GI50: 2760 nM
  TGI: 23600 nM
[47]
  GI50: 1480 nM
  TGI: 58400 nM
[48]
  GI50: 1700 nM
  TGI: 18200 nM
[49]
  GI50: 2320 nM
  TGI: > 100000 nM
[50]
  GI50: 3440 nM
  TGI: > 100000 nM
[51]
  GI50: 601 nM
  TGI: 10900 nM
[52]
  GI50: 3370 nM
  TGI: > 100000 nM
[54]
  GI50: 1800 nM
  TGI: 17300 nM
[55]
  GI50: 2680 nM
  TGI: > 100000 nM
[56]
  GI50: 552 nM
  TGI: 14800 nM

## Cc1[nH]c(C(=O)Nc2ccccc2OCc2cccc(C(=O)N3CCC[C@@H](N)C3)c2)c(Cl)c1Cl
[6]
  GI50: 1060 nM
  TGI: 2620 nM
[7]
  GI50: 1630 nM
  TGI: 3120 nM
[8]
  GI50: 1710 nM
  TGI: 3150 nM
[9]
  GI50: 1770 nM
  TGI: 3410 nM
[10]
  GI50: 1820 nM
  TGI: 3400 nM
[11]
  GI50: 1630 nM
  TGI: 3170 nM
[14]
  GI50: 1930 nM
  TGI: 3760 nM
[16]
  GI50: 1640 nM
  TGI: 3300 nM
[18]
  GI50: 1570 nM
  TGI: 2980 nM
[1]
  GI50: 1800 nM
  TGI: 3390 nM
[21]
  GI50: 1790 nM
  TGI: 3360 nM
[25]
  GI50: 1330 nM
  TGI: 2710 nM
[26]
  GI50: 2060 nM
  TGI: 4570 nM
[28]
  GI50: 1240 nM
  TGI: 2990 nM
[30]
  GI50: 1690 nM
  TGI: 3430 nM
[32]
  GI50: 1570 nM
  TGI: 2960 nM
[35]
  GI50: 1530 nM
  TGI: 3060 nM
[2]
  GI50: 1120 nM
  TGI: 2670 nM
[3]
  GI50: 1610 nM
  TGI: 3020 nM
[4]
  GI50: 1130 nM
  TGI: 2500 nM
[40]
  GI50: 1600 nM
  TGI: 3090 nM
[41]
  GI50: 1560 nM
  TGI: 3010 nM
[43]
  GI50: 1330 nM
  TGI: 2800 nM
[44]
  GI50: 254 nM
  TGI: 771 nM
[46]
  GI50: 1720 nM
  TGI: 3110 nM
[47]
  GI50: 2040 nM
  TGI: 3700 nM
[49]
  GI50: 1780 nM
  TGI: 3430 nM
[54]
  GI50: 1770 nM
  TGI: 3500 nM
[55]
  GI50: 1790 nM
  TGI: 3260 nM
